We go through 12 molecules from publication PMC11267533, “Ligandability at the Membrane Interface of GPx4 Revealed through a Reverse Micelle Fragment Screening Platform” (JACS Au, 2024).

The assay addresses T1, GPx4 embedded in a mmRM (membrane-bound GPx4) (Homo sapiens, UniProt P36969, U73G).
T1 construct: Truncated U46G-GPx4 with a TEV cleavable poly-histidine tag was inserted into vector; poly-histidine tag with TEV cleavage site; host or cells: BL21 (DE3) E. coli
T1 sequence (P36969 1-170 isoform P36969-2 U46G): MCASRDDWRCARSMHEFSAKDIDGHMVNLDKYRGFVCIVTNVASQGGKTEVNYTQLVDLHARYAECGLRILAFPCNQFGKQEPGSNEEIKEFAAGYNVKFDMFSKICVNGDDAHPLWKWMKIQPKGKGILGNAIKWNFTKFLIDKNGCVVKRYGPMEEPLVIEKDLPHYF
Description: NMR (15N-HSQC) titration of fragments against GPx4 embedded in DLPC/DPC mmRM, apparent Kd. The class given is binding. Particulars: ± standard error of global Kd fit. From the text:
To assess whether the fragment hits are bound specifically to GPx4 and to calculate affinity, we performed NMR-based titrations. Chemical shift changes that approach saturation in a structurally localized manner target indicate specific binding.[24] This allows true positive hits to be separated from false positives and weak or nonspecific binders. Additionally, NMR-based titrations allow for the extraction of a binding affinity (Kd). To calculate apparent Kd values, CSP cutoffs were used to isolate the resonances with most shifting using 1 standard deviation above the average CSP. All 14 fragments identified from the deconvolutions were titrated up to 400 μM or 1 mM if needed. Of the 14, 9 had apparent Kds less than 1 mM and were identified as hits. Observed here is a 0.47% hit rate with best affinities in the μM range for the membrane-bound form of GPx4 and is consistent with ligandable and potentially druggable targets.[14],[57] […] The remaining five fragments, 10–14, were ruled out as weaker (>∼1 mM) or nonspecific binders. Weak or nonspecific binding could indicate that fragments partitioning to the mmRM surface and perturb the protein spectrum through a simple change in the chemical environment at the interface, among other possible nonspecific effects. […] We note that the weaker and nonspecific fragments were only eliminated due to interaction modes that are too weak or unproductive for advancement toward inhibitors; yet, binding was nevertheless detected. […] We note here that apparent Kd values reported in this study account for a total amount of fragment and protein within the mmRM sample and are not corrected for any potential concentrating effect due to localization of fragment to the mmRM surface or water phase.
NMR samples were prepared with ^15N-isotopically labeled protein with 10% v/v of d-pentane as the lock solvent (Sigma-Aldrich, St. Louis, MO). All NMR spectra were collected at 25 °C on a 700 MHz Bruker Avance III instrument. All NMR spectra were processed using NMRPipe[66] and analyzed using NMRFAM-Sparky.[67] Chemical shifts for GPx4 (BMRB 50955) were assigned from those previously published.[52] Chemical shift perturbations from ^15N-HSQC spectra were calculated using the following formula [drawing 1] where Δ^1H and Δ^15N are the changes in ^1H and ^15N chemical shifts, respectively.
The 14 fragments isolated from deconvolutions were purchased from Life Chemicals (fragments 1, 4, 6, and 11, and 12–14), Combi-Blocks (2, 3, 5, 9, and 10), or ChemBridge Hit2Lead (7 and 8). All fragment 1 and 5 analogues were also purchased from ChemBridge Hit2Lead. Fragments and analogues purchased from Life Chemicals and Hit2Lead are 90+% pure, while the fragments purchased from Combi-Blocks ranged from 95 to 97% pure. The day prior to the titration, a double-volume sample of encapsulated GPx4 was made before being split up into two separate vials. Half of the sample was added to the vial containing predried fragment corresponding to 400 μM or 1 mM. […] If they were, then the two samples were mixed to produce varying concentrations and to measure a titration curve. The top-shifting resonances were determined by calculating the average CSP at 400 μM or 1 mM and 1 and 2 standard deviations (σ) above that average. The CSP for the resonance at each fragment concentration was extracted and fit to a curve using an affinity equation that accounts for ligand depletion [drawing 2]
Any resonance producing a curve with an R^2 below 0.85 was removed, and the remaining resonances were then used to fit a global apparent Kd curve for the fragment hit. Standard error for Kd from the global fit of all of the selected residues is reported.

Where [1] appears, read: Table 2, analogues of fragment 5, GPx4 in mmRM, read-out: Apparent Kd.
The mark [2] stands for this setting: Table 1, GPx4 in DLPC/DPC mmRM, NMR titration up to 400 μM or 1 mM, read-out: Kd (apparent).

Read-outs that look alike come from different tables or passages of the source.

For the molecule `O=c1oc2c(-c3ccc(Cl)cc3)cc(O)cc2s1` [Analog 5.4], under setting [1], the Kd is 40 ± 20 µM.
Regarding `COCC(=O)N1CCOc2ccccc2C1` [Fragment 4], under setting [2], the Kd worked out at 140 ± 85 µM.
In the case of `Cc1ccc(-c2cc(O)cc3sc(=O)oc23)cc1Cl` [Analog 5.7], the Kd under setting [1] was 15 ± 10 µM.
For the molecule `NCCS(=O)(=O)c1ccccc1` [Fragment 3], the Kd under setting [2] was 140 ± 50 µM.
With `N#Cc1ccc(CC(=O)O)cc1` [Fragment 2], the Kd under setting [2] was determined as 110 ± 65 µM.
As for `NCc1nc(-c2ncccn2)no1` [Fragment 7], the Kd under setting [2] was 310 ± 100 µM.
Consider `O=c1oc2c(-c3cccc(Cl)c3)cc(O)cc2s1` [Analog 5.6], for which the Kd under setting [1] amounted to 25 ± 10 µM.
On to `CC(=O)c1c(C)nn(CC(=O)O)c1C` [Fragment 8], for which the Kd under setting [2] stood at 370 ± 165 µM.
Regarding `CCOC(=O)c1ccc(Cl)nn1` [Fragment 9], the Kd under setting [2] amounted to 840 ± 300 µM.
`O=c1oc2c(-c3ccccc3)cc(O)cc2s1` [Analog 5.1]: the Kd under setting [1] is more than 400 µM.
On to `O=c1oc2c(-c3ccccc3Cl)cc(O)cc2s1` [Analog 5.3], for which the Kd under setting [1] stood at 85 ± 50 µM.
In the case of `Cc1cccc(-c2cc(O)cc3sc(=O)oc23)c1` [Analog 5.2], under setting [1], the Kd was more than 400 µM.
